Source: ChEMBL document CHEMBL1201862, “PubChem BioAssay data set” (2004)
pIC50: −log10 of the molar value. The source made the active and inactive calls.

Assays:
NADPH oxidase 1 = NADPH oxidase 1 (Homo sapiens, UniProt Q9Y5S8); format: functional, cell-based;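 further: Cell-based assay with luminescence read-out, IC50 derived from inhibitor dose-response curves; intracellular ROS from endogenous NOX1 in intact HT29 colon cancer cells; potency of inhibitors that lower the ROS luminescence signal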
[1] = target: T1, Kappa-type opioid receptor (Homo sapiens, UniProt P41145); format: functional
INS1 = assay: beta cell apoptosis inhibitors, cytokine rescue, dose response, luminescence, retest (AID 449756); format: functional, cell-based; details: Rattus norvegicus;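 further: cell death triggered by IL-1 beta plus TNF-alpha plus IFN-gamma mixture; protective hits raise ATP signal compared with cytokine alone wells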
Beta-galactosidase [2] = target: T2, Beta-galactosidase (Escherichia coli, UniProt Q8VNN2); assay: PubChem AID 485352; format: functional
[3] = HEK293T cytotoxicity, dose response, cytotoxicity control for miR-122 modulator project, cell-based, inhibitor set, cherry-pick, set 2 (AID 720697); format: functional
[4] = target: T3, Replicative DNA helicase DnaB (Mycobacterium tuberculosis, UniProt P9WMR3); assay: DnaB intein splicing inhibitors, dose response, biochemical, cell-free fluorescence (AID 449749); format: functional
T3 sequence (P9WMR3 whole entry): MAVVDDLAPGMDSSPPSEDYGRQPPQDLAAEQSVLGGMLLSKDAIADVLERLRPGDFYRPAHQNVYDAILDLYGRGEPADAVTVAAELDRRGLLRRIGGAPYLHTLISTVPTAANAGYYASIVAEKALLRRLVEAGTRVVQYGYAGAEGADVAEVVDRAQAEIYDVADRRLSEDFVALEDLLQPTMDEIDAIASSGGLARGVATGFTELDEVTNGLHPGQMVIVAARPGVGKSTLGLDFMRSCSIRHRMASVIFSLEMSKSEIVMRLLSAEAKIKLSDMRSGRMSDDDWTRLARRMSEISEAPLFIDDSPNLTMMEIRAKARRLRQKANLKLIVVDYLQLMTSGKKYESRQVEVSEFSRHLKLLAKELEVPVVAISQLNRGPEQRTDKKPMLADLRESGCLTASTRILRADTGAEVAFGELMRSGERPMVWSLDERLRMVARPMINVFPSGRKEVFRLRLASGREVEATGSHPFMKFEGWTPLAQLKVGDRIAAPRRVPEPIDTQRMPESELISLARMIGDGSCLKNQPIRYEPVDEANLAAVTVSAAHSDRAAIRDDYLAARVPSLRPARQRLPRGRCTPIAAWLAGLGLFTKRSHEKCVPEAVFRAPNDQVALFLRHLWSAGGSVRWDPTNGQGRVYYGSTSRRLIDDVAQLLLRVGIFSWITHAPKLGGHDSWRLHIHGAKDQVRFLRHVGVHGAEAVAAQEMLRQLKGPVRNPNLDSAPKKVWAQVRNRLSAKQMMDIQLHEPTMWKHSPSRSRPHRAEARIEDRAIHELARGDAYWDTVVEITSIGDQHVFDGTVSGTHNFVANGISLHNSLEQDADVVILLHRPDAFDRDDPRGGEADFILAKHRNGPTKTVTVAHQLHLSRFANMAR

Beta Lactamase = Beta Lactamase (Pseudomonas aeruginosa, UniProt Q932Y6); assay: beta-lactamase reporter inhibitor potency, dose response, artefact control for TLR9-MyD88 binding inhibitor project, BLA reporter cells, FRET fluorescence (AID 588341); format: cell-based;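 further: cell based assay in CHO-K1 cells stably expressing beta-lactamase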
[5] = target: T4, Type-1 angiotensin II receptor (Homo sapiens, UniProt P30556); assay: AT1 receptor antagonists, dose response, selectivity assay for APJ receptor antagonist project, cell-based, uHTS hits (AID 463214); format: functional;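 further: antagonist potency against angiotensin II stimulated AT1 response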
T4 sequence (P30556 whole entry): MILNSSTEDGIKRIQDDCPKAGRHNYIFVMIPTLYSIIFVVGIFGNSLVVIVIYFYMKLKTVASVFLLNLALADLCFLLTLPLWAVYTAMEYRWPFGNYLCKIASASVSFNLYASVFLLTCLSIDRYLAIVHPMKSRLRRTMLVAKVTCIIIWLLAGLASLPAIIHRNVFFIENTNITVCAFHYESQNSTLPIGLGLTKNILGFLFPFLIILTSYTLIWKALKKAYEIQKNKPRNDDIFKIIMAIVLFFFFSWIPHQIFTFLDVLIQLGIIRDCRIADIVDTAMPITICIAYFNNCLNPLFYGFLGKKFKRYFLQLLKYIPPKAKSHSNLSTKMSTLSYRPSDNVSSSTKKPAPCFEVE

[6] = target: T1, Kappa-type opioid receptor; format: functional; remark: listed apart in the source
[7] = HEK293T cytotoxicity, dose response, cytotoxicity control for miR-122 modulator project, cell-based, activator set, cherry-pick (AID 720690); format: functional;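 further: HEK293T human cells scored for general mammalian cytotoxicity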
[8] = target: Sphingosine 1-phosphate receptor 4 (Homo sapiens, UniProt O95977); assay: Fluorescence dose response cell-based high throughput screening assay for antagonists of the Sphingosine 1-Phosphate Receptor 4 (S1P4). [Related pubchem assays: 1524 (Confirmation in triplicates.), 1510 (Primary screen.)]; format: functional
[9] = target: T5, Heat shock factor protein 1 (Mus musculus, UniProt P38532); assay: HSF1 potentiators in luciferase reporter cells, confirmation, cell-based, NIH3T3, luminescence, dose retest (AID 435004); format: functional;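 further: stress induced by proteasome inhibitor MG132 added 30 min after compound; luciferase reporter driven by HSF1 response element in NIH3T3 cells; actives raise luminescence as potentiators of the MG132 stress response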
T5 sequence (P38532 whole entry): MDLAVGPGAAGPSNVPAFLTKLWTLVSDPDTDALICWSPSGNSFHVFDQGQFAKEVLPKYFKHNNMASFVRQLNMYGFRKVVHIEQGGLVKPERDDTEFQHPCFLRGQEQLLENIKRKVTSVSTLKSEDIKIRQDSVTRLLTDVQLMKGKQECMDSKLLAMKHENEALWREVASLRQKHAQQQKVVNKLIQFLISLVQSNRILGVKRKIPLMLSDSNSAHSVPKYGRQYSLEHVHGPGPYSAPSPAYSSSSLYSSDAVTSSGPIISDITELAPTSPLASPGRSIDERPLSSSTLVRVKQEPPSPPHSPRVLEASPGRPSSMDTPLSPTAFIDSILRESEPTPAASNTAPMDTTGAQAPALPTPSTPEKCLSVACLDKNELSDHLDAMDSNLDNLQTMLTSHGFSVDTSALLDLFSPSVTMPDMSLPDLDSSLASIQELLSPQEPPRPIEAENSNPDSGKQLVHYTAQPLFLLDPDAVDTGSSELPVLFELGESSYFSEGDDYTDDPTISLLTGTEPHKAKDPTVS

Beta-galactosidase [10] = target: T2, Beta-galactosidase; format: functional
[11] = target: Sphingosine 1-phosphate receptor 1 (Homo sapiens, UniProt P21453); format: functional;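 further: Tango beta-arrestin reporter U2OS cells stimulated with S1P near its EC80; inhibitor potency meaning antagonism of receptor activation by the natural agonist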
CHO = assay: cytotoxicity in TLR9-MyD88 CHO cells, dose response, cytotoxicity control for TLR9-MyD88 binding inhibitor project, cell-based, luminescence (AID 588339); format: functional, hamster; details: Cricetulus griseus;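 further: CHO cells stably coexpressing TLR9 and MyD88 fusions from primary screen; compound exposure lasted 48 hours before viability readout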
Protein RecA = target: T6, Protein RecA (Mycobacterium tuberculosis, UniProt P9WHJ3); assay: Fluorescence Cell-Free Homogeneous Dose Retest to Identify Inhibitors of RecA-Intein Splicing Activity. [Related pubchem assays (depositor defined):AID2097, AID2223, AID489010, AID492950]; format: functional
T6 sequence (P9WHJ3 whole entry): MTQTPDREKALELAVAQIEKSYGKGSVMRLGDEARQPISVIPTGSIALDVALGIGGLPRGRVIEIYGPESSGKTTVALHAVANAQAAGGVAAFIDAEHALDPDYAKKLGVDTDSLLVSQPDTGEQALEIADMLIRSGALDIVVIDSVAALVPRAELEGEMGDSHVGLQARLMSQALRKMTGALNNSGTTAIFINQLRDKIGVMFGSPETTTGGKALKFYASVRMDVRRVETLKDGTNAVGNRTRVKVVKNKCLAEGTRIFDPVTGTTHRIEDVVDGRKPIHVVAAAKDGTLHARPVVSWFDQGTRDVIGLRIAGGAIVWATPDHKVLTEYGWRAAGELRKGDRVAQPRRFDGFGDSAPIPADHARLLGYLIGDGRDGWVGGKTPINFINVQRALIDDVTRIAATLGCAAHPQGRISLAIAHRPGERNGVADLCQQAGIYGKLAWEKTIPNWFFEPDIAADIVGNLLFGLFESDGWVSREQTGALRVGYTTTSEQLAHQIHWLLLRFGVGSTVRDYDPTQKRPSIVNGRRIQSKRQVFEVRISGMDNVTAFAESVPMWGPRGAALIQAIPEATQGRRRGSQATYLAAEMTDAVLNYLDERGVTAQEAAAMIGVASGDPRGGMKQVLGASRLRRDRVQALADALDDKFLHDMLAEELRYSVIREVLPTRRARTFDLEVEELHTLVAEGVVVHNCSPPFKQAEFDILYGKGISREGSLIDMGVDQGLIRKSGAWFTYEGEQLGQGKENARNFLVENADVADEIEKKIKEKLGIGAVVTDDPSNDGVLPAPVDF

[12] = miR-122 activators in hepatoma reporter cells, dose response, cell-based, Huh7 psiCHECK-miR122, Renilla luciferase, cherry-picked (AID 651956); format: functional;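 further: huh7 hepatoma cells stably carrying a psiCHECK-2 miR-122 sensor plasmid; renilla luciferase signal reporting endogenous miR-122 activity after 48 h compound exposure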
[13] = growth suppression of PTEN-null colon cells, dose response, cell-based, HCT116 PTEN knockout (AID 1047); format: functional;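 further: HCT116 colon tumor cells with PTEN knocked out; cells exposed to compound for 60 hours before readout; potency for loss of cell viability measured by luminescence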
[14] = target: Protein-tyrosine kinase 2-beta (Homo sapiens, UniProt Q14289);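 further: potency of inhibitors of PYK2 kinase phosphorylation of poly-GT substrate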
[15] = growth suppression of beta-catenin-knockout colon cells, dose response, cell-based, HCT116, human colon tumor (AID 1045); format: functional;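 further: HCT116 colon tumor cells with beta catenin knocked out; cells exposed to compound for 60 hours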
H4 = assay: Luminescence Cell-Based Dose Response HTS to Identify Activators of 5'UTR Stem-Loop Driven Prion Protein mRNA Translation in H4 Neuroglioblastoma Cells. [Related pubchem assays: 1829 (Project Summary), 1814 (Primary HTS)]; format: functional; details: Homo sapiens
[16] = Luminescence Cell-Based Dose Response HTS to Identify Activators of Luciferase Translation or Activity in H4 […] Cells. [Related pubchem assays: 1829 (Project Summary), 1814 (Primary HTS)]; format: functional
[17] = Luminescence Cell-Based Dose Response to Identify Activators of Luciferase Translation or Activity in H4-C Neuroglioblastoma Cells. [Related pubchem assays: 1829 (Project Summary), 1814 (Primary HTS)]; format: functional
[18] = Luminescence Cell-Based Dose Response to Identify Activators of 5'UTR Stem-Loop Driven Prion Protein mRNA Translation in H4-C Neuroglioblastoma Cells. [Related pubchem assays: 1829 (Project Summary), 1814 (Primary HTS)]; format: functional
[19] = Luminescence Cell-Based Dose Confirmation HTS to Identify Activators of 5'UTR Stem-Loop Driven Alpha-Synuclein mRNA Translation in H4 Neuroglioblastoma Cells. [Related pubchem assays: 1829 (Project Summary), 1814 (Primary HTS)]; format: functional
[20] = Luminescence Cell-Based Dose Confirmation to Identify Activators of 5'UTR Stem-Loop Driven Alpha-Synuclein mRNA Translation in H4 Neuroglioblastoma Cells. [Related pubchem assays: 1829 (Project Summary), 1814 (Primary HTS)]; format: functional
[21] = target: Epstein-Barr nuclear antigen 1 (Epstein-Barr virus (strain B95-8) (HHV-4) (Human herpesvirus 4), UniProt P03211); assay: EBNA-1 inhibitors, dose response, biochemical, fluorescence polarization, 1536-well (AID 2381); set-up: species or system human gammaherpesvirus 4;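 further: fluorescence polarization of a Cy5 DNA probe bound by EBNA-1 protein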
[22] = target: Lytic switch protein BZLF1 (Epstein-Barr virus (strain B95-8) (HHV-4) (Human herpesvirus 4), UniProt P03206); assay: EBV ZTA inhibitors, dose response, counter-screen for EBNA-1 inhibitor project, biochemical, fluorescence polarization, Epstein-Barr virus, 1536-well (AID 2377); set-up: species or system human gammaherpesvirus 4;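 further: fluorescence polarization of Cy5-labelled ZRE DNA probe bound by purified Zta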
[23] = inhibitors of intracellular T. cruzi replication, confirmation, NIH3T3 host cells, beta-gal luminescence (AID 2044); format: functional, cell-based;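 further: intracellular parasites grown in NIH/3T3 mouse fibroblasts as host cells; luminescent beta-galactosidase reporter signal from transgenic T. cruzi replicating inside host cells; inhibitors lower the luminescence signal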
[24] = cytotoxicity toward NIH3T3 fibroblasts, dose response, counter-screen, cell-based, ATP luminescence, mouse fibroblasts (AID 2010); format: functional;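 further: cells exposed to compound for about 90 hours before reading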

Lytic switch protein BZLF1, sequence (P03206 whole entry): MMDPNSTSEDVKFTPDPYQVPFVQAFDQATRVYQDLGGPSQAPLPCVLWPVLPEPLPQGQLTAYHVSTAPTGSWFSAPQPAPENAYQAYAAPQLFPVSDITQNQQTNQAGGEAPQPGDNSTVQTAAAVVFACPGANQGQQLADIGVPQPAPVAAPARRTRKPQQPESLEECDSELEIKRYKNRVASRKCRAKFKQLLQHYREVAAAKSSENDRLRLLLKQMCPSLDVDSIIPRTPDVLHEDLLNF
T1 sequence (P41145 whole entry): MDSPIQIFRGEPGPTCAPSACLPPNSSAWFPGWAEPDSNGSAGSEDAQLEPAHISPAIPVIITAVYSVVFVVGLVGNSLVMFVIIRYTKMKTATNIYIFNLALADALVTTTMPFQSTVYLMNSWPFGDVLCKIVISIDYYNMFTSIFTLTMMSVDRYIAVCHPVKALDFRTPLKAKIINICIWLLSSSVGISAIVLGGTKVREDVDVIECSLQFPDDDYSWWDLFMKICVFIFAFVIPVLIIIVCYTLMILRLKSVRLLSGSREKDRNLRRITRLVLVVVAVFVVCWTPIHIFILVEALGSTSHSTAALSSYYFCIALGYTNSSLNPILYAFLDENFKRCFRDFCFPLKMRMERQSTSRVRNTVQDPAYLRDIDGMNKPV
T2 sequence (Q8VNN2 whole entry): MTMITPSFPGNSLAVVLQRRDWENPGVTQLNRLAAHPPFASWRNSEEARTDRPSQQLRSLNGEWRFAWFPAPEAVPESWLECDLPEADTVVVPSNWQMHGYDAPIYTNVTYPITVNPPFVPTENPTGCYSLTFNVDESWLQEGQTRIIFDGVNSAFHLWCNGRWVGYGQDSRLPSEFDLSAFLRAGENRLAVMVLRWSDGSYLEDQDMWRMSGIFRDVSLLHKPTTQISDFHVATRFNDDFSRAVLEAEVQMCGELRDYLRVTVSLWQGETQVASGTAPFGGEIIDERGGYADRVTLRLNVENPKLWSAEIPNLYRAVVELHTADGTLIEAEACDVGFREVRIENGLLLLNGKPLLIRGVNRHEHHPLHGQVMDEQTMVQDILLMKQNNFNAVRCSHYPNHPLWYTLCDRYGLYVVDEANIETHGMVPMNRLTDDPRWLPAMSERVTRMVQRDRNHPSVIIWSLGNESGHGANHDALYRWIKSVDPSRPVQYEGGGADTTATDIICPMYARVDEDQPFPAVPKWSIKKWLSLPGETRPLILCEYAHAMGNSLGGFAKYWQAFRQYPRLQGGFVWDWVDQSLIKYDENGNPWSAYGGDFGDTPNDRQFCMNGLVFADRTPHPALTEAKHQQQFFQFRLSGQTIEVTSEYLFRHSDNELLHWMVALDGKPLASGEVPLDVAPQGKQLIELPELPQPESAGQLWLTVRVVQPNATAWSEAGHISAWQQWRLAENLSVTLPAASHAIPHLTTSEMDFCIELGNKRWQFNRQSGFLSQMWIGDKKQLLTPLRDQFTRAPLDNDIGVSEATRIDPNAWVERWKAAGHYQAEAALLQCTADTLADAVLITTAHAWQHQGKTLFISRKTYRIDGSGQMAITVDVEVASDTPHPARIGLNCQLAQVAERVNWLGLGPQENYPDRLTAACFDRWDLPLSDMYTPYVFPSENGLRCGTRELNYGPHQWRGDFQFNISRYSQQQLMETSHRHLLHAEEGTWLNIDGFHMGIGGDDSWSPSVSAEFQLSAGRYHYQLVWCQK
NADPH oxidase 1, sequence (Q9Y5S8 whole entry): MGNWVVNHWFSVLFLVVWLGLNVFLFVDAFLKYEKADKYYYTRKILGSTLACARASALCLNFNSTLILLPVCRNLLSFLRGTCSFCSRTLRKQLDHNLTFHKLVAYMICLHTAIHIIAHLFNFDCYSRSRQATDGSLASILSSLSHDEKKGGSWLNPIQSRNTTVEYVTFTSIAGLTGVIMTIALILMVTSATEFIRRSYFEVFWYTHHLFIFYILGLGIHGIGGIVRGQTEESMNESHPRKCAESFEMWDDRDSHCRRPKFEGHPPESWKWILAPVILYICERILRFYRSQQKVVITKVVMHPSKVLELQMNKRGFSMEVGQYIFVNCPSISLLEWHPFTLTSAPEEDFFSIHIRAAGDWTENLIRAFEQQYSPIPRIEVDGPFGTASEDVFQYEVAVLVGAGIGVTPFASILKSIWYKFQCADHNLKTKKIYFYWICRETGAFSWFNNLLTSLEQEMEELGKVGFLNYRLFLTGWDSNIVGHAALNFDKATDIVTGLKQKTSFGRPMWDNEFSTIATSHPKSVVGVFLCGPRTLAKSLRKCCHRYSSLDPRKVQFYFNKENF
Epstein-Barr nuclear antigen 1, sequence (P03211 whole entry): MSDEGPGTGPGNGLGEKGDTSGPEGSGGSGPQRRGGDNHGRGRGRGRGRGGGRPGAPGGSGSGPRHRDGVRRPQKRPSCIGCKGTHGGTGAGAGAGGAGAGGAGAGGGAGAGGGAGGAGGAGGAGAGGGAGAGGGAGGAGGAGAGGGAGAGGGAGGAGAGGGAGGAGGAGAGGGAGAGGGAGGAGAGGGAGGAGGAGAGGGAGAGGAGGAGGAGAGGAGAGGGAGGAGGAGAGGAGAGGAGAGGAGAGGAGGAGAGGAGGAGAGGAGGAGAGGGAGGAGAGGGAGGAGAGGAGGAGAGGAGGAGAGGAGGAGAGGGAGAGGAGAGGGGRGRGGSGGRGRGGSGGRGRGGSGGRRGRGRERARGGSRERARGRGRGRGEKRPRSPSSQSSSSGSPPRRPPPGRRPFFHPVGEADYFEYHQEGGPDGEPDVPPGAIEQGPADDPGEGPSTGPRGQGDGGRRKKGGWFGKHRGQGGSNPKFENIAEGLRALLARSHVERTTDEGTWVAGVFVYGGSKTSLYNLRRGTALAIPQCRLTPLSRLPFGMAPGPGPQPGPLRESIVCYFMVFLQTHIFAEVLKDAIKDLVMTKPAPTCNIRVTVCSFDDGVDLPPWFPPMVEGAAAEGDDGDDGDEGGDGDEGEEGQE
Sphingosine 1-phosphate receptor 4, sequence (O95977 whole entry): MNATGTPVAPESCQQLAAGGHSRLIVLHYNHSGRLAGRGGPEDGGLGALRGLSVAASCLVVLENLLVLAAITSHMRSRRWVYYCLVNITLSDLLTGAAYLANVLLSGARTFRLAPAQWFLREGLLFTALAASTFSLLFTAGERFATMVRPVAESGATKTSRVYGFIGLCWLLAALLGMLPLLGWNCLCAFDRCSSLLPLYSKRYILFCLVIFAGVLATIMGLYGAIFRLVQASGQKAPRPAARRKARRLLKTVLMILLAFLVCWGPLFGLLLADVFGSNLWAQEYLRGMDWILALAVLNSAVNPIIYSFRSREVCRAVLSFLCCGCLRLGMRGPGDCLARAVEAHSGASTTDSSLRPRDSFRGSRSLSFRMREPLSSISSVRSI
Beta Lactamase, sequence (Q932Y6 whole entry): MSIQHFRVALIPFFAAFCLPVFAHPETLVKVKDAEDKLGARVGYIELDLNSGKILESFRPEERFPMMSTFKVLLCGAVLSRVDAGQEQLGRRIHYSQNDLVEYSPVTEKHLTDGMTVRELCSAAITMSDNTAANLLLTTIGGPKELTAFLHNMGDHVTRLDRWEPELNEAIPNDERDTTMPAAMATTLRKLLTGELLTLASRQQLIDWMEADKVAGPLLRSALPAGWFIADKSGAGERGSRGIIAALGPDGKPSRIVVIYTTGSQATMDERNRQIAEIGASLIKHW
Protein-tyrosine kinase 2-beta, sequence (Q14289 whole entry): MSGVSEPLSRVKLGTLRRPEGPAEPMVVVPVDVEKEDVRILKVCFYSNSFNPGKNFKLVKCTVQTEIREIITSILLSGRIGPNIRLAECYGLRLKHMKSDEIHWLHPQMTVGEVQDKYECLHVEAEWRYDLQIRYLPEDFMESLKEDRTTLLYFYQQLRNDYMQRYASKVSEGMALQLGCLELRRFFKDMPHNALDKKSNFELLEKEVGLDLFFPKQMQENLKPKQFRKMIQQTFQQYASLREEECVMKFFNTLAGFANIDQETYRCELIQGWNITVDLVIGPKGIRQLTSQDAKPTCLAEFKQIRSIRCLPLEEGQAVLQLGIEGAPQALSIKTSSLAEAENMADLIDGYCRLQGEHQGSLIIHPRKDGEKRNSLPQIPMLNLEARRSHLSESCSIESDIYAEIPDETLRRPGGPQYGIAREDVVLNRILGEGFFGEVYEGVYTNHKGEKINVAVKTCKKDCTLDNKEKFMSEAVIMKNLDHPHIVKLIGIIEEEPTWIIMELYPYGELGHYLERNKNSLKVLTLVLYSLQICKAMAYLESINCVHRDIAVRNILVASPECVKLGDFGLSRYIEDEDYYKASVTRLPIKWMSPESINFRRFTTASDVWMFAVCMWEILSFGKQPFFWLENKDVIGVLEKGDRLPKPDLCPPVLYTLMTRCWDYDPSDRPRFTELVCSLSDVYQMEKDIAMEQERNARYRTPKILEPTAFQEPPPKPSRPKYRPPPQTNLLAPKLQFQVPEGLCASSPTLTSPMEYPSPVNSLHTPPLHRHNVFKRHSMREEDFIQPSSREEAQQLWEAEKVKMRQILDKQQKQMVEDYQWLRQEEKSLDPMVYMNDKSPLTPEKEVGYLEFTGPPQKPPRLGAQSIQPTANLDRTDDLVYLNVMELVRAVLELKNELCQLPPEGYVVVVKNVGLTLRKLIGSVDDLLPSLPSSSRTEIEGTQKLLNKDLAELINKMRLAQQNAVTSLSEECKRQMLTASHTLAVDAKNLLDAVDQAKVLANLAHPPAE
Sphingosine 1-phosphate receptor 1, sequence (P21453 whole entry, the tested form may be a part): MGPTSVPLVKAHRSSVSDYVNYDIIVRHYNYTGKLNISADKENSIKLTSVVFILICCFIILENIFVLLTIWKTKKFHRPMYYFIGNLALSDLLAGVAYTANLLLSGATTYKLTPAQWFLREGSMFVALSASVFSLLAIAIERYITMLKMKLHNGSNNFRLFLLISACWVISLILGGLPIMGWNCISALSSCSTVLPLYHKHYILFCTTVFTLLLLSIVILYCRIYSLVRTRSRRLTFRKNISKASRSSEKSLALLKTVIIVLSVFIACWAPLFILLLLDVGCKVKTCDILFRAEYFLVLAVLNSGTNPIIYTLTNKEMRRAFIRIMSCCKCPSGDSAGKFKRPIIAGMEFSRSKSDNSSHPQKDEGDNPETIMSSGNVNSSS

COc1ccc(-c2nc(-c3ccc(O)cc3)[nH]c2-c2ccc(OC)cc2)cc1
IC50 (NADPH oxidase 1): 9.01 µM (active)

CCn1c(Cl)c(C=O)s/c1=N\S(=O)(=O)c1ccccc1
pIC50 [1]: 5.31
AC50 (INS1): 5.12 µM (active)
EC50 (Beta-galactosidase [2]): > 40 µM (inactive)
AC50 [3]: 1.84 µM (active)
AC50 [4]: 18.2 µM (active)
IC50 (Beta Lactamase): 12.5 µM (inactive)
IC50 [5]: 2.24 µM (active)
IC50 [6]: 11.8 µM (active)
AC50 [7]: 3.2 µM (active)
IC50 [8]: 1.48 µM (active)
EC50 [9]: > 260 µM (inconclusive)
EC50 (Beta-galactosidase [10]): > 31.5 µM (inactive)
IC50 [11]: 7.5 µM (active)
IC50 (CHO): 952 nM (active)
EC50 (Protein RecA): 1.3 µM (active)
AC50 [12]: 7.8 µM (active)

COc1cccc(OC(=O)c2sc3ccccc3c2Cl)c1
IC50 (NADPH oxidase 1): > 17 µM (not active)

CN1CCc2c(sc3ncn4nc(-c5ccccc5O)nc4c23)C1
EC50 [13]: 13.4 µM (active)
IC50 [14]: 17.9 µM (not active)
EC50 [15]: 10.4 µM (active)

O=C1c2ccccc2S(=O)(=O)N1CC1CC(c2ccc(Cl)cc2)=NO1 (configuration not stated)
EC50 (H4): 9.96 µM (active)
EC50 [16]: < 100 nM (active)
EC50 [17]: 407 nM (active)
EC50 [18]: 805 nM (active)
EC50 [19]: < 100 nM (active)
EC50 [20]: 435 nM (active)

CCOC(=O)N1CCc2c(sc(NC(=O)C3COc4ccccc4O3)c2C(N)=O)C1 (configuration not stated)
IC50 [21]: 15.3 µM (not active)
IC50 [22]: > 111 µM (not active)

CC(=O)Nc1ccc(NC(=O)Cc2sc(-c3cccnc3)nc2-c2ccc(C)cc2)cc1
EC50 [23]: 1.28 µM (active)
IC50 [21]: > 5.47 µM (active)
EC50 [24]: > 60 µM (not active)
IC50 [22]: > 111 µM (not active)

Cc1ccc(C(=O)Nc2ccc(C(F)(F)F)n(C)c2=O)cc1
EC50 [16]: < 100 nM (inconclusive)
EC50 [17]: 305 nM (active)
EC50 [18]: 317 nM (active)
EC50 [20]: 311 nM (active)
